Data: the NIST ThermoML archive (doi:10.1021/je301344y)
Numbers after ± are expanded uncertainties.

Details: Fluid (supercritical or subcritical phases), Pulse-echo method

C=CC [propene]
Details | speed of sound [m/s]
320 K, 5106.4 kPa | 632.55 ± 2.8
320 K, 6107.1 kPa | 653.68 ± 2.7
320 K, 7107.8 kPa | 673.35 ± 2.6
320 K, 8108.4 kPa | 691.81 ± 2.5
320 K, 9108.4 kPa | 709.24 ± 2.5
320 K, 10109 kPa | 725.77 ± 1.3
320 K, 12611 kPa | 763.9 ± 1.2
320 K, 15112 kPa | 798.37 ± 1.2
320 K, 17614 kPa | 829.99 ± 1.2
320 K, 20116 kPa | 859.32 ± 1.1
320 K, 25119 kPa | 912.52 ± 1.1
320 K, 30123 kPa | 960.18 ± 1.1
320 K, 35126 kPa | 1003.6 ± 1
320 K, 40130 kPa | 1043.6 ± 1
320 K, 45133 kPa | 1080.8 ± 1
320 K, 50136 kPa | 1115.7 ± 0.98
320 K, 60143 kPa | 1179.8 ± 1
320 K, 70150 kPa | 1237.9 ± 0.99
320 K, 80157 kPa | 1291.2 ± 0.99
320 K, 90164 kPa | 1340.7 ± 0.99
340.01 K, 4105 kPa | 453.16 ± 3.3
340.01 K, 5105.7 kPa | 489.49 ± 3.3
340.01 K, 6106.3 kPa | 520.38 ± 3.1
340.01 K, 7107 kPa | 547.59 ± 2.9
340.01 K, 8107.7 kPa | 572.12 ± 2.7
340.01 K, 9108.2 kPa | 594.57 ± 2.6
340.01 K, 10109 kPa | 615.36 ± 1.3
340.01 K, 12611 kPa | 661.83 ± 1.3
340.01 K, 15113 kPa | 702.48 ± 1.2
340.01 K, 17615 kPa | 738.94 ± 1.2
340.01 K, 20117 kPa | 772.18 ± 1.1
340.01 K, 25119 kPa | 831.39 ± 1.1
340.01 K, 30122 kPa | 883.53 ± 1
340.01 K, 35126 kPa | 930.45 ± 1
340.01 K, 40129 kPa | 973.32 ± 1
340.01 K, 45133 kPa | 1012.9 ± 0.99
340.01 K, 50136 kPa | 1049.9 ± 0.96
340.01 K, 60143 kPa | 1117.3 ± 0.97
340.01 K, 70150 kPa | 1178 ± 0.97
340.02 K, 80157 kPa | 1233.5 ± 0.96
340.02 K, 90164 kPa | 1284.8 ± 0.97
340.02 K, 100171 kPa | 1332.5 ± 0.99
360 K, 5105 kPa | 311.26 ± 3.7
360 K, 6105.7 kPa | 370.15 ± 3.9
360 K, 7106.5 kPa | 413.28 ± 3.3
360 K, 8107.1 kPa | 448.54 ± 3
360 K, 9107.8 kPa | 478.92 ± 2.8
360 K, 10109 kPa | 505.89 ± 1.3
360 K, 12610 kPa | 563.32 ± 1.3
360 K, 15112 kPa | 611.37 ± 1.2
360 K, 17614 kPa | 653.26 ± 1.1
360 K, 20116 kPa | 690.72 ± 1.1
360 K, 25119 kPa | 756.2 ± 1.1
360 K, 30122 kPa | 812.8 ± 1
360 K, 35127 kPa | 863.13 ± 0.99
360 K, 40130 kPa | 908.71 ± 0.98
360 K, 45134 kPa | 950.58 ± 0.96
360 K, 50137 kPa | 989.41 ± 0.93
360 K, 60144 kPa | 1059.9 ± 0.95
360 K, 70151 kPa | 1123 ± 0.94
360 K, 80158 kPa | 1180.4 ± 0.94
360 K, 90165 kPa | 1233.3 ± 0.94
360 K, 100172 kPa | 1282.4 ± 0.97
380 K, 7106.1 kPa | 268.33 ± 3.3
380 K, 7357.4 kPa | 283.48 ± 3.3
380 K, 7606.5 kPa | 297.29 ± 3.2
380 K, 7858.2 kPa | 310.32 ± 3.1
380 K, 8106.9 kPa | 322.34 ± 3.2
380 K, 9107.6 kPa | 364.56 ± 3.1
380 K, 10108 kPa | 399.84 ± 1.2
380 K, 12610 kPa | 470.55 ± 1.3
380 K, 15112 kPa | 526.72 ± 1.2
380 K, 17613 kPa | 574.26 ± 1.1
380 K, 20116 kPa | 615.93 ± 1
380 K, 25119 kPa | 687.43 ± 1
380 K, 30123 kPa | 748.22 ± 0.99
380 K, 35126 kPa | 801.68 ± 0.96
380 K, 40130 kPa | 849.74 ± 0.95
380 K, 45134 kPa | 893.62 ± 0.94
380 K, 50137 kPa | 934.15 ± 0.9
380 K, 60144 kPa | 1007.4 ± 0.92
380 K, 70152 kPa | 1072.6 ± 0.92
380 K, 80159 kPa | 1131.7 ± 0.92
380 K, 90166 kPa | 1186 ± 0.92
380 K, 100173 kPa | 1236.3 ± 0.95
400 K, 10108 kPa | 309.3 ± 1.1
400 K, 11109 kPa | 343.84 ± 1.2
400 K, 12110 kPa | 374.75 ± 1.2
400 K, 13110 kPa | 402.68 ± 1.1
400 K, 14111 kPa | 428.21 ± 1.2
400 K, 15111 kPa | 451.76 ± 1.1
400 K, 16111 kPa | 473.63 ± 0.99
400 K, 17110 kPa | 494.15 ± 1.1
400 K, 18112 kPa | 513.48 ± 1
400 K, 19112 kPa | 531.79 ± 1.1
400 K, 20113 kPa | 549.2 ± 0.97
400 K, 22615 kPa | 589.41 ± 1
400 K, 25117 kPa | 625.81 ± 0.93
400 K, 30121 kPa | 690.16 ± 0.95
400 K, 35124 kPa | 746.29 ± 0.93
400 K, 40128 kPa | 796.45 ± 0.92
400 K, 45132 kPa | 842.05 ± 0.91
400 K, 50135 kPa | 884.02 ± 0.87
400 K, 60142 kPa | 959.55 ± 0.89
400.01 K, 70148 kPa | 1026.5 ± 0.89
400.01 K, 80156 kPa | 1087 ± 0.89
400.01 K, 90163 kPa | 1142.6 ± 0.9
400.01 K, 100170 kPa | 1194 ± 0.92
420 K, 12107 kPa | 315 ± 0.91
420 K, 13108 kPa | 341.84 ± 0.96
420 K, 14109 kPa | 367.29 ± 0.97
420 K, 15110 kPa | 391.25 ± 0.98
420 K, 16110 kPa | 413.79 ± 0.98
420 K, 17113 kPa | 435.07 ± 0.97
420 K, 18114 kPa | 455.17 ± 0.97
420 K, 19115 kPa | 474.24 ± 0.96
420 K, 20116 kPa | 492.39 ± 0.93
420 K, 22618 kPa | 534.32 ± 0.94
420 K, 25120 kPa | 572.24 ± 0.9
420 K, 30123 kPa | 639.09 ± 0.91
420 K, 35127 kPa | 697.19 ± 0.9
420 K, 40130 kPa | 748.95 ± 0.88
420 K, 45134 kPa | 795.89 ± 0.88
420 K, 50138 kPa | 838.99 ± 0.85
420 K, 60145 kPa | 916.37 ± 0.87
420 K, 70152 kPa | 984.82 ± 0.87
420 K, 80159 kPa | 1046.6 ± 0.89
